Measured values published in patent publication US20200390764A1, “PHARMACEUTICAL FORMULATIONS, PROCESSES FOR PREPARATION, AND METHODS OF USE” (Sunesis Pharmaceuticals, Inc., priority 2017, published 2020).
pEC50: −log10 of the molar value. Values after ≈ are worked out from the molar mass of the structure shown.

Assays:
[1] = tested on: phosphorylation of PDK1, RSK2, and AKT; assay: Pathway modulation in cells: inhibition of phosphorylation; format: cell-based
From the text: (§1) The compounds bind deep in the adaptive (allosteric) pocket, causing a distortion in the N-terminal domain thereby perturbing the PIF-pocket and thus negatively modulating PI-independent substrate binding. […] Anti-proliferative activity correlated with pathway modulation assessed by inhibition of phosphorylation of PDK1, RSK2, and AKT.

[2] = tested on: cell lines derived from hematologic cancers; assay: Apoptosis induction in cancer cell lines; format: cell-based; details: after 24 hours
From the text: as §1

[3] = tested on: cell lines derived from hematologic cancers; assay: 72-hour viability assays; format: cell-based
From the text: as §1

MV4-11 xenografts = assay: In vivo pathway modulation in MV4-11 xenografts; details: 4 hours and 24 hours after a single oral dose, MV4-11 xenografts in mice
Experimental: Pathway modulation was assessed in vivo using MV4-11 xenografts in mice. […] Efficacy was assessed by 21-day dosing in MV4-11 xenografts.

[4] = Oral pharmacokinetics in mice; format: in vivo; details: for Tmax / bioavailability: mouse, in vivo; for bioavailability: read-out: oral bioavailability % F
[5] = tested on: cell lines derived from hematologic cancers; assay: Anti-proliferative activity in a panel of hematologic cancer cell lines; format: cell-based; details: panel of more than 20 cell lines: AML, multiple myeloma, DLBCL, Mantle cell lymphoma
From the text: as §1

PDK1 = biological target: T1, PDK1 (Homo sapiens, UniProt O15530); assay: PDK1 biochemical potency (binding of the inactive conformation); details: compared to the PDK1 inhibitor GSK2334470
T1 sequence (O15530 1-556): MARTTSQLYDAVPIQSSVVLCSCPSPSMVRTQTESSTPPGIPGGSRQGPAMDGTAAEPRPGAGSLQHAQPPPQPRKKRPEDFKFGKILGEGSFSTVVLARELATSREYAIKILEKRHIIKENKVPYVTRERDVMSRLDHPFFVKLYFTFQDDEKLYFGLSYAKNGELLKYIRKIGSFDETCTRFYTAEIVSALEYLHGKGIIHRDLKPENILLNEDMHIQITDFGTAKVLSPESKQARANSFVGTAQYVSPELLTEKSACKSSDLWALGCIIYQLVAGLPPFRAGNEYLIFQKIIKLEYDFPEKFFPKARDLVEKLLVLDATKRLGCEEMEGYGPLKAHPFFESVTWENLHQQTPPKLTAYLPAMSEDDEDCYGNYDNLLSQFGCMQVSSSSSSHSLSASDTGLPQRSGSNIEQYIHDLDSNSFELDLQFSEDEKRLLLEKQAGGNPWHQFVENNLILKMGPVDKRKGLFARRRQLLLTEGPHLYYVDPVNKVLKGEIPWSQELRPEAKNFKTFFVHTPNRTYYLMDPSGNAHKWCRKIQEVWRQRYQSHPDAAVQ
From the text: as §1

Aqueous solubility = format: physicochemical
From the text: The present invention provides a process for the preparation of a pharmaceutical composition comprising active compounds as described herein, with improved absorption. […] According to the process of the present invention, it is possible to provide, from an active compound, a formulation in which the dissolution rate and oral bioavailability of the drug are high. Furthermore, the solid dispersion extrudates of the present invention have good stability at room temperature.
To overcome the inherent hurdles posed by this class of drugs, three alternative formulation approaches were screened: lipid-based formulation, nano-suspension, and solid dispersion via hot melt extrusion (HME).

Row | SMILES | inhibition of PDK1 phosphorylation, fold more after 24 hours than 4 hours ([1]; 24 hours vs 4 hours) | fold more potent than GSK2334470 at inhibiting PDK1 and RSK2 phosphorylation ([1]; all cell lines tested) | apoptosis [2] | fold more potent than GSK2334470 in viability assays [3] | pathway modulation in vivo (MV4-11 xenografts) | half-life [4] | Tmax [4] [h] | bioavailability [4] [%] | pEC50 [5] | biochemical potency compared to GSK2334470 (PDK1) | solubility (Aqueous solubility; aqueous buffer, over the physiological pH range) [µg/mL] | solubility (Aqueous solubility; aqueous medium (not specified further)) [µg/mL]
1 | CNc1n[nH]c2ncc(-c3ccc(CNc4ncc(C#N)nc4C(=O)N[C@@H](C)c4ccc(F)c(F)c4)cc3)cc12 [Compound 2, 6-Cyano-3-[4-(3-methylamino-1H-pyrazolo[3,4-b]pyridin-5-yl)-benzylamino]-pyrazine-2-carboxylic acid [1-(3,4-difluoro-phenyl)-ethyl]-amide] | 2-5 fold | 10- to 30 fold | substantial apoptosis | at least 10 fold | Potent pathway modulation | long half-life | 4 to 8 | > 40 | 6.05 to 8.52 | comparable biochemical potency | – | –
2 | C[C@H](NC(=O)c1nc(C#N)cnc1NCc1ccc(-c2cnc3[nH]nc(N)c3n2)cc1)c1ccc(F)c(F)c1 (stereo in doubt) [Compound 1, 3-[4-(3-Amino-1H-pyrazolo[3,4-b]pyrazin-5-yl)-benzylamino]-6-cyano-pyrazine-2-carboxylic acid [1-(3,4-difluoro-phenyl)-ethyl]-amide] | – | – | – | – | Potent pathway modulation | long half-life | 4 to 8 | > 40 | – | – | < 0.1 | 0.1 (≈ 0.19 µM)
